One assay has as its target T1, human JAK1 (Homo sapiens, UniProt P23458).
T1 construct: catalytic domain, amino acids 866-1154; catalog number PV4774; purchased Invitrogen PV4774
In words: JAK1 inhibition assay (polyGT substrate / Ulight-JAK1 peptide). Type of assay: biochemical. As to conditions: recombinant human JAK1 catalytic domain; polyGT or Ulight-JAK1 peptide assay. A digest of the protocol:
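Two formats. PolyGT radiometric: 45 min at 30 °C, stopped with phosphoric acid, counted as cpm. Ulight-JAK1 peptide: 60 min at room temperature, stopped with Eu-anti-phosphotyrosine/EDTA, read as RFU. Percent inhibition normalised to vehicle and 10 μM staurosporine.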

The target of the next assay is T2, human JAK2 (Homo sapiens, UniProt O60674).
T2 construct: catalytic domain (amino acids 808-1132; catalog number PV4210); GST; purchased Invitrogen PV4210
As to the kind of experiment: JAK2 inhibition assay (polyGT substrate / Ulight-JAK1 peptide). The following applies: recombinant human JAK2 catalytic domain; polyGT or Ulight-JAK1 peptide assay. It is filed as biochemical. A digest of the protocol: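 Radiometric: 0.025 mU JAK2 with 2.5 μg polyGT, 1 μM ATP plus ^33P-ATP in MOPS pH 7.5 buffer, 1% DMSO, 90 min at 30° C.; filter counting. Alternative TR-FRET format with Ulight-JAK1 peptide, 60 min at room temperature, Eu-anti-phosphotyrosine detection.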

The target in the next assay is T3, human JAK3 (Homo sapiens, UniProt P52333).
T3 construct: catalytic domain (amino acids 781-1124; catalog number PV3855); purchased Invitrogen PV3855
In words: JAK3 inhibition assay. It is filed as biochemical. As to conditions: recombinant human JAK3 catalytic domain; polyGT substrate. A digest of the protocol:
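Radiometric kinase assay: 0.5 ng JAK3 with 2.5 μg polyGT in Tris pH 7.5/MgCl2 buffer, 1 μM ATP plus 0.25 μCi 33P-γ-ATP, 1% DMSO, 45 min at 30 °C, stopped with phosphoric acid.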

A further assay deals with T4, human TYK2 (Homo sapiens, UniProt P29597).
T4 construct: catalytic domain (amino acids 871-1187; catalog number 08-147); purchased Carna Biosciences 08-147
T4 sequence (P29597 871-1187): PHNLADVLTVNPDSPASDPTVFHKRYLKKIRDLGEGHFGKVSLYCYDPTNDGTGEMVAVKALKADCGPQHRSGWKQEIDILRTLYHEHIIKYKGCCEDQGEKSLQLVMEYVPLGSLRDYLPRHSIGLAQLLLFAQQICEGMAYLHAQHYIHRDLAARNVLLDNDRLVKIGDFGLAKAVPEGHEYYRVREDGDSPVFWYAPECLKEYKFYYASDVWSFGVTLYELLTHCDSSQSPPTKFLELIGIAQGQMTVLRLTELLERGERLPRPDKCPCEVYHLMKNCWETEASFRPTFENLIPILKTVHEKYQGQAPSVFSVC
As to the kind of experiment: TYK2 inhibition assay. Type of assay: biochemical. As to conditions: recombinant human TYK2 catalytic domain, polyGT substrate. A digest of the protocol: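 Radiometric kinase reaction run 90 min at 30 °C, stopped with phosphoric acid, washed and scintillation-counted.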

The test system of a further assay is CTLL-2 cell line. In words: CTLL2 viability assay. It is filed as cell-based. The following applies: Mus musculus, IL-2 dependent CTLL2 viability, 24 h, ATP-lite. An excerpt: The protocol describes the methods to analyse the activity of compounds on their ability to sustain the IL2-dependent viability of CTLL2.
Final DMSO concentration was 0.1%.

The subject of a further assay is BA/F3 cell line. As to the kind of experiment: BA/F3 viability assay. The following applies: Mus musculus, BaF3, 48 h, read-out: BA/F3 IC50.

The text below walks through data of US20130217664A1, “NOVEL COMPOUNDS USEFUL FOR THE TREATMENT OF DEGENERATIVE AND INFLAMMATORY DISEASES” (priority 2012, published 2013).

T1 sequence (P23458 866-1154): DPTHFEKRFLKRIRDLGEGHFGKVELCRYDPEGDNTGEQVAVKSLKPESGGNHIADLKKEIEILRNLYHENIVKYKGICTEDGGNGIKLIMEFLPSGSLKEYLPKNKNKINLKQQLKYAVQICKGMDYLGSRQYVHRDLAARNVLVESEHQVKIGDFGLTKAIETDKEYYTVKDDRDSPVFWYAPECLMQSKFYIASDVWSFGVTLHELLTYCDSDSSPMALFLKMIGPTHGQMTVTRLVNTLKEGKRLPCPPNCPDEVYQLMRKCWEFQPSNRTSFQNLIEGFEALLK
T2 sequence (O60674 808-1132): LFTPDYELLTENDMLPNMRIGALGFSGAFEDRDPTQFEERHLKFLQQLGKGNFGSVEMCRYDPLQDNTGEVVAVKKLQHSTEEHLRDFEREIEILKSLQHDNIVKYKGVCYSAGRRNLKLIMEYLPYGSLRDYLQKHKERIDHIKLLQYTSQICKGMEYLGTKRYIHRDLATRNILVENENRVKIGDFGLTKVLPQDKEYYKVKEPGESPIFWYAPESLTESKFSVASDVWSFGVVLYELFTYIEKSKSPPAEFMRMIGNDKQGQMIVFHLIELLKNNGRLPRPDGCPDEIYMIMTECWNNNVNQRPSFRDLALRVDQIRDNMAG
T3 sequence (P52333 781-1124): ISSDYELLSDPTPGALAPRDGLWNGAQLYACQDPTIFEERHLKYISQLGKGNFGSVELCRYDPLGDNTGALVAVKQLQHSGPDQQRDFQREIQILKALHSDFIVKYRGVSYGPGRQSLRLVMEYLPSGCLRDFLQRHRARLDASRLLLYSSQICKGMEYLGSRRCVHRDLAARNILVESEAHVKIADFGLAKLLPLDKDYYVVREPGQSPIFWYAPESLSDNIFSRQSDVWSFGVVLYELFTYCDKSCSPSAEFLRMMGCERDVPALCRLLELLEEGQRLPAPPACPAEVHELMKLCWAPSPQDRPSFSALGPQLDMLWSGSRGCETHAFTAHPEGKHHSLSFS

For the compound `CCc1cc(CNCC(F)F)ccc1N(C)c1cc2c(cn1)ncn2C` [Compound 379], the IC50 was 0.01 to 100 nM on human JAK1; 101 to 500 nM at human JAK2; 101 to 500 nM at human JAK3; 101 to 500 nM on human TYK2; more than 1000 nM in the assay with CTLL-2 cell line; more than 5000 nM in the assay with BA/F3 cell line.
With `CCc1cc(CNCC(F)(F)F)ccc1N(C)c1cc2c(cn1)ncn2C` [Compound 380], the IC50 on human JAK1 is 0.01 to 100 nM; on human JAK2 it was 0.01 to 100 nM; at human JAK3 it was 101 to 500 nM; at human TYK2 it was 101 to 500 nM; in the assay with CTLL-2 cell line, more than 1000 nM; in the assay with BA/F3 cell line it was 1000 to 5000 nM.
With `CCc1cc(CN2CC(C#N)C2)ccc1N(C)c1cc2c(cn1)ncn2C` [Compound 381, 1-{3-Ethyl-4-[methyl-(1-methyl-1H-imidazo[4,5-c]pyridin-6-yl)-amino]-enzyl}-azetidine-3-carbonitrile], the IC50 is 0.01 to 100 nM on human JAK1; 101 to 500 nM on human JAK2; more than 1000 nM on human JAK3; 501 to 1000 nM on human TYK2; more than 1000 nM in the assay with CTLL-2 cell line; more than 5000 nM in the assay on BA/F3 cell line.
Turning to `CCc1cc(C2CCN(S(C)(=O)=O)CC2)ncc1N(C)c1cc2c(cn1)ncn2C` [Compound 383, (4-Ethyl-1′-methanesulfonyl-1′,2′,3′,4′,5′,6′-hexahydro-[2,4′]bipyridinyl-5-yl)-methyl-(1-methyl-1H-imidazo[4,5-c]pyridin-6-yl)-amine], the IC50 at human JAK1 is 0.01 to 100 nM; at human JAK2 it was 101 to 500 nM; at human JAK3, 501 to 1000 nM; on human TYK2, 501 to 1000 nM; with CTLL-2 cell line, more than 1000 nM; with BA/F3 cell line, 1000 to 5000 nM.
With `CCc1cc(C2(C#N)CC2)ccc1N(C)c1cc2c(cn1)ncn2C` [Compound 385, 1-{3-Ethyl-4-[methyl-(1-methyl-1H-imidazo[4,5-c]pyridin-6-yl)-amino]-phenyl}-cyclopropanecarbonitrile], the IC50 was 0.01 to 100 nM on human JAK1; 0.01 to 100 nM at human JAK2; 0.01 to 100 nM on human JAK3; 0.01 to 100 nM at human TYK2; more than 1000 nM in the assay on CTLL-2 cell line; 1000 to 5000 nM in the assay on BA/F3 cell line.
For the compound `CCc1cc(C(CC#N)NS(C)(=O)=O)ccc1N(C)c1cc2c(cn1)ncn2C` (stereo not drawn) [Compound 387, N-(2-Cyano-1-{3-ethyl-4-[methyl-(1-methyl-1H-imidazo[4,5-c]pyridin-6-yl)-amino]-phenyl}-ethyl)-methanesulfonamide], the IC50 at human JAK1 was 0.01 to 100 nM; at human JAK2, 101 to 500 nM; on human JAK3 it was 101 to 500 nM; on human TYK2, 101 to 500 nM; with CTLL-2 cell line, more than 1000 nM; in the assay with BA/F3 cell line it was more than 5000 nM.
In the case of `CCc1cc(CN(CC#N)S(C)(=O)=O)ccc1N(C)c1cc2c(cn1)ncn2C` [Compound 388, N-Cyanomethyl-N-{3-ethyl-4-[methyl-(1-methyl-1H-imidazo[4,5-c]pyridin-6-yl)-amino]-benzyl}-methanesulfonamide], the IC50 at human JAK1 is 0.01 to 100 nM; at human JAK2 it was 0.01 to 100 nM; at human JAK3 it was 0.01 to 100 nM; on human TYK2, 0.01 to 100 nM; in the assay on CTLL-2 cell line, more than 1000 nM; in the assay with BA/F3 cell line it was 1000 to 5000 nM.
As to `CCc1cc(C2(CC#N)COC2)ccc1N(C)c1cc2c(cn1)ncn2C` [Compound 389, (3-{3-Ethyl-4-[methyl-(1-methyl-1H-imidazo[4,5-c]pyridin-6-yl)-amino]-phenyl}-oxetan-3-yl)-acetonitrile], the IC50 on human JAK1 is 0.01 to 100 nM; at human JAK2, 0.01 to 100 nM; at human JAK3, 0.01 to 100 nM; on human TYK2, 0.01 to 100 nM; with CTLL-2 cell line it was more than 1000 nM; with BA/F3 cell line, more than 5000 nM.
Turning to `CCc1cc(C(C#N)N2CCN(S(C)(=O)=O)CC2)ccc1N(C)c1cc2c(cn1)ncn2C` (stereo not drawn) [Compound 390, {3-Ethyl-4-[methyl-(1-methyl-1H-imidazo[4,5-c]pyridin-6-yl)-amino]-phenyl}-(4-methanesulfonyl-piperazin-1-yl)-acetonitrile], the IC50 at human JAK1 is 0.01 to 100 nM; on human JAK2, 0.01 to 100 nM; on human JAK3 it was 0.01 to 100 nM; at human TYK2, 0.01 to 100 nM; with CTLL-2 cell line, more than 1000 nM; with BA/F3 cell line, more than 5000 nM.
Turning to `CCc1cc(C(C#N)N2CC(C#N)C2)ccc1N(C)c1cc2c(cn1)ncn2C` (stereo not drawn) [Compound 391, 1-(Cyano-{3-ethyl-4-[methyl-(1-methyl-1H-imidazo[4,5-c]pyridin-6-yl)-amino]-phenyl}-methyl)-azetidine-3-carbonitrile], the IC50 is 0.01 to 100 nM at human JAK1; 0.01 to 100 nM at human JAK2; 101 to 500 nM on human JAK3; 0.01 to 100 nM at human TYK2; more than 1000 nM in the assay with CTLL-2 cell line; 1000 to 5000 nM in the assay on BA/F3 cell line.
Take `CCc1cc(C2(CCNS(C)(=O)=O)COC2)ccc1N(C)c1cc2c(cn1)ncn2C` [Compound 392, N-[2-(3-{3-Ethyl-4-[methyl-(1-methyl-1H-imidazo[4,5-c]pyridin-6-yl)-amino]-phenyl}-oxetan-3-yl)-ethyl]-methanesulfonamide]: the IC50 on human JAK1 is 0.01 to 100 nM; on human JAK2, 0.01 to 100 nM; on human JAK3, 101 to 500 nM; on human TYK2, 0.01 to 100 nM; with CTLL-2 cell line it was more than 1000 nM; with BA/F3 cell line it was more than 5000 nM.
`CCc1cc(C(C#N)N2CCOCC2)ccc1N(C)c1cc2c(cn1)ncn2C` (stereo not drawn) [Compound 393, {3-Ethyl-4-[methyl-(1-methyl-1H-imidazo[4,5-c]pyridin-6-yl)-amino]-phenyl}-morpholin-4-yl-acetonitrile]: the IC50 on human JAK1 was 0.01 to 100 nM; on human JAK2 it was 0.01 to 100 nM; on human JAK3, 0.01 to 100 nM; on human TYK2, 0.01 to 100 nM; with CTLL-2 cell line, more than 1000 nM; in the assay with BA/F3 cell line, more than 5000 nM.
Regarding `CCc1cc(C(C#N)N2CCC2)ccc1N(C)c1cc2c(cn1)ncn2C` (stereo not drawn) [Compound 394], the IC50 at human JAK1 is 0.01 to 100 nM; at human JAK2, 0.01 to 100 nM; at human JAK3 it was 101 to 500 nM; at human TYK2 it was 0.01 to 100 nM; in the assay with CTLL-2 cell line, more than 1000 nM; in the assay with BA/F3 cell line, 1000 to 5000 nM.
Turning to `CCc1cc(C(C#N)N2CCC(F)(F)CC2)ccc1N(C)c1cc2c(cn1)ncn2C` (stereo not drawn) [Compound 395, (4,4-Difluoro-piperidin-1-yl)-{3-ethyl-4-[methyl-(1-methyl-1H-imidazo[4,5-c]pyridin-6-yl)-amino]-phenyl}-acetonitrile], the IC50 at human JAK1 is 0.01 to 100 nM; at human JAK2 it was 0.01 to 100 nM; on human JAK3, 101 to 500 nM; at human TYK2, 0.01 to 100 nM; in the assay with CTLL-2 cell line it was more than 1000 nM; in the assay with BA/F3 cell line it was more than 5000 nM.
In the case of `CCc1cc(C(C#N)N2CCN(C(C)=O)CC2)ccc1N(C)c1cc2c(cn1)ncn2C` (stereo not drawn) [Compound 396, (4-Acetyl-piperazin-1-yl)-{3-ethyl-4-[methyl-(1-methyl-1H-imidazo[4,5-c]pyridin-6-yl)-amino]phenyl}-acetonitrile], the IC50 was 0.01 to 100 nM on human JAK1; 0.01 to 100 nM at human JAK2; 0.01 to 100 nM at human JAK3; 0.01 to 100 nM on human TYK2; more than 1000 nM with CTLL-2 cell line; more than 5000 nM in the assay with BA/F3 cell line.
As to `CCc1cc(C2(CCNS(=O)(=O)C(F)F)COC2)ccc1N(C)c1cc2c(cn1)ncn2C` [Compound 397, N-[2-(3-{3-Ethyl-4-[methyl-(1-methyl-1H-imidazo[4,5-c]pyridin-6-yl)-amino]-phenyl}-oxetan-3-yl)-ethyl]-C,C-difluoro-methanesulfonamide], the IC50 was 0.01 to 100 nM on human JAK1; 0.01 to 100 nM on human JAK2; 0.01 to 100 nM at human JAK3; 0.01 to 100 nM at human TYK2; more than 1000 nM in the assay on CTLL-2 cell line; 1000 to 5000 nM in the assay with BA/F3 cell line.
As for `CCc1cc(C2(COS(=O)(=O)C(F)F)CCNC2)ccc1N(C)c1cc2c(cn1)ncn2C` (stereo not drawn) [Compound 398, difluoro-methanesulfonic acid 3-{3-ethyl-4-[methyl-(1-methyl-1H-imidazo[4,5-c]pyridin-6-yl)-amino]-phenyl}-pyrrolidin-3-ylmethyl ester], the IC50 at human JAK1 is 0.01 to 100 nM; on human JAK2, 0.01 to 100 nM; on human JAK3, 0.01 to 100 nM; on human TYK2, 101 to 500 nM; in the assay with CTLL-2 cell line it was more than 1000 nM; in the assay on BA/F3 cell line it was 1000 to 5000 nM.
